Experimental data: publication PMC8766756, “Insights on Cancer Cell Inhibition, Subcellular Activities, and Kinase Profile of Phenylacetamides Pending 1H-Imidazol-5-One Variants” (Frontiers in Pharmacology, 2022)
Several values for one entry are separate records, joined by “and”; a condition that tells them apart may be missing. Equal entries are not always repeated.

Key:
Experiment in all cases: PamChip tyrosine kinase microarray
Format in all cases: biochemical
Conditions in all cases: 0.1 µM, HL60 lysate
[1] = target: T1, Met (P08581) (Homo sapiens, UniProt P08581)
T1 construct: purchased PamGene (PamChip PTK array, Upstream Kinase Analysis)
How it was run: (§1)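 HL60 (AML) cell lysate was spiked with compound at 0.001, 0.01, 0.1, 1, 10 and 50 µM, or 2% v/v DMSO as control, then profiled in technical replicates on a tyrosine kinase peptide array of 196 phosphosites. Kinase activity was inferred from peptide-set changes using an upstream kinase tool.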

[2] = target: T2, Yes (P07947) (Homo sapiens, UniProt P07947)
T2 construct: purchased PamGene (PamChip PTK array, Upstream Kinase Analysis)
How it was run: as §1

[3] = target: T3, Tyro3/Sky (Q06418) (Homo sapiens, UniProt Q06418)
T3 construct: purchased PamGene (PamChip PTK array, Upstream Kinase Analysis)
T3 sequence (Q06418 41-890): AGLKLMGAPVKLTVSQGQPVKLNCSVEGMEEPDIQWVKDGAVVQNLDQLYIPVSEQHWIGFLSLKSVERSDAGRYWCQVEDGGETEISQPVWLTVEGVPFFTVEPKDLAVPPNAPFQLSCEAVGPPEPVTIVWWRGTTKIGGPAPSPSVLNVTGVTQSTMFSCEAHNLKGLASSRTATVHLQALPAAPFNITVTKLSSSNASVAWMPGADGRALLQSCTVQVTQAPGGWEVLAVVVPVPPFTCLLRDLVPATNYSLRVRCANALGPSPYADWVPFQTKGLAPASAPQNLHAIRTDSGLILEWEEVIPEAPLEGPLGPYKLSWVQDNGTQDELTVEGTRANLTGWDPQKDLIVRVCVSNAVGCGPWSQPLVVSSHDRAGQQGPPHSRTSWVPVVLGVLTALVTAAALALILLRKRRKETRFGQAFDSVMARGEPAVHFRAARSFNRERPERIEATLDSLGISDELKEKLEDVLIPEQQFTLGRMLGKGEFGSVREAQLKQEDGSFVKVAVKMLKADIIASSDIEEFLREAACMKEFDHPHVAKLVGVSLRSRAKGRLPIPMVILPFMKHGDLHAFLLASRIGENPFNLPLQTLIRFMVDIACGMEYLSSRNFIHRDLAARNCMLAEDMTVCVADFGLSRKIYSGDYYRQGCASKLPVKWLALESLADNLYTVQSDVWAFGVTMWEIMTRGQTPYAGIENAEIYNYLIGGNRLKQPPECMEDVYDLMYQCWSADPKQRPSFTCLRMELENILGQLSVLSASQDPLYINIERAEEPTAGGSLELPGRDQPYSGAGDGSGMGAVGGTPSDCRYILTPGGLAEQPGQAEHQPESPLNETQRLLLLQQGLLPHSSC
How it was run: as §1

[4] = target: T4, Etk/BMX (P51813) (Homo sapiens, UniProt P51813)
T4 construct: purchased PamGene (PamChip PTK array, Upstream Kinase Analysis)
T4 sequence (P51813 1-675): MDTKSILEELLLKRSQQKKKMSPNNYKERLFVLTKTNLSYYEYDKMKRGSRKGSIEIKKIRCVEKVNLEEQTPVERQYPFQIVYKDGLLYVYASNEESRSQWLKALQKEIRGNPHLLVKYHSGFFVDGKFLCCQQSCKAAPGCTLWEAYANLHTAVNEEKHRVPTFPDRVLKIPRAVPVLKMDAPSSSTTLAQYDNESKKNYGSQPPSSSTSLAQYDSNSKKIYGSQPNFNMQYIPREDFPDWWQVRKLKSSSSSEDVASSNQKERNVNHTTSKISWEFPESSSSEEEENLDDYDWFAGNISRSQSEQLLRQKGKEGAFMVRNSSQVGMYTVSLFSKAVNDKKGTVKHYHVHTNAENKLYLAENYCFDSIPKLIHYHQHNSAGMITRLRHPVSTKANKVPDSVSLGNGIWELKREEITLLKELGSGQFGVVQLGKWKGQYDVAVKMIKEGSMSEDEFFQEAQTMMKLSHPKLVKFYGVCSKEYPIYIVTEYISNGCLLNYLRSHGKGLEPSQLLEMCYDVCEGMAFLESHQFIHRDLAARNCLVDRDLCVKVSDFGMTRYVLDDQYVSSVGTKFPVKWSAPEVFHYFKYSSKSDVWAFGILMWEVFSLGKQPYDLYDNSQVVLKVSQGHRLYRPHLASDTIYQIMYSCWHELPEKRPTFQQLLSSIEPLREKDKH
How it was run: as §1

[5] = target: T5, Kit (P10721) (Homo sapiens, UniProt P10721)
T5 construct: purchased PamGene (PamChip PTK array, Upstream Kinase Analysis)
How it was run: as §1

T1 sequence (P08581 25-1390): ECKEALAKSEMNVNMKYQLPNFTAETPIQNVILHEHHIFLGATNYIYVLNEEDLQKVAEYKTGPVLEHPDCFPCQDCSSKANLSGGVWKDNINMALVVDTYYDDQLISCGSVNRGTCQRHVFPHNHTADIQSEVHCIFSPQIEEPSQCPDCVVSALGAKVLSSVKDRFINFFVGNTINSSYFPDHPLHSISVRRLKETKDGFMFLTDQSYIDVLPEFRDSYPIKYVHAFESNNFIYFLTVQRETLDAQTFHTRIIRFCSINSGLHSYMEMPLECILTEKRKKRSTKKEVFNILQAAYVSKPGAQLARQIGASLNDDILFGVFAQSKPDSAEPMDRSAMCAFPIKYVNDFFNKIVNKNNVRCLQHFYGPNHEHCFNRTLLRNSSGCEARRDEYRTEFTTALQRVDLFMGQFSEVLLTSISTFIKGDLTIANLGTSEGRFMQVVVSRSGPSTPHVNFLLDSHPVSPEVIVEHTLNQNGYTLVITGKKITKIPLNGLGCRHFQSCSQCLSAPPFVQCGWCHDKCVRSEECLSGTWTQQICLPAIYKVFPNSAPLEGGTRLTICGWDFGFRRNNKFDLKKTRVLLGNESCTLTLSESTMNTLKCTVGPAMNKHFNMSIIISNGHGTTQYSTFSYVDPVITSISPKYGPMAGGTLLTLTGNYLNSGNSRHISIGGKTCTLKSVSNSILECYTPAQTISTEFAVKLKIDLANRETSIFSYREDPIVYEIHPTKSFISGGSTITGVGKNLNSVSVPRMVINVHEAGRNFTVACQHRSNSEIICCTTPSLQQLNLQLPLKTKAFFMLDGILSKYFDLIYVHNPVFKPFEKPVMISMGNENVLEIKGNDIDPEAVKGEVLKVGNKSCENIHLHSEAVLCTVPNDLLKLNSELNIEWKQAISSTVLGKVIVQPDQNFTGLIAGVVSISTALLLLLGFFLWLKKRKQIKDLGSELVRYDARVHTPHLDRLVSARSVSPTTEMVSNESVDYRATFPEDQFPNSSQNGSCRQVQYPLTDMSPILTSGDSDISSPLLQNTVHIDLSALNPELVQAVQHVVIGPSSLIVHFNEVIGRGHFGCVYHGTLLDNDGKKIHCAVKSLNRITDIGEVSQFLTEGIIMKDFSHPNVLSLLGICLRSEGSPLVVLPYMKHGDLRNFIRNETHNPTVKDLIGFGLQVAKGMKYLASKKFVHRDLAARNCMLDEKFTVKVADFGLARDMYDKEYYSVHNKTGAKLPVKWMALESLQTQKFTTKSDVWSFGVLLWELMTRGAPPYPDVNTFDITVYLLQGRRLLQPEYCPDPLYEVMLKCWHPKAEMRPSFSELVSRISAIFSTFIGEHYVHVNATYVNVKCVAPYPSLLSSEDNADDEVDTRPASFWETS
T5 sequence (P10721 26-976): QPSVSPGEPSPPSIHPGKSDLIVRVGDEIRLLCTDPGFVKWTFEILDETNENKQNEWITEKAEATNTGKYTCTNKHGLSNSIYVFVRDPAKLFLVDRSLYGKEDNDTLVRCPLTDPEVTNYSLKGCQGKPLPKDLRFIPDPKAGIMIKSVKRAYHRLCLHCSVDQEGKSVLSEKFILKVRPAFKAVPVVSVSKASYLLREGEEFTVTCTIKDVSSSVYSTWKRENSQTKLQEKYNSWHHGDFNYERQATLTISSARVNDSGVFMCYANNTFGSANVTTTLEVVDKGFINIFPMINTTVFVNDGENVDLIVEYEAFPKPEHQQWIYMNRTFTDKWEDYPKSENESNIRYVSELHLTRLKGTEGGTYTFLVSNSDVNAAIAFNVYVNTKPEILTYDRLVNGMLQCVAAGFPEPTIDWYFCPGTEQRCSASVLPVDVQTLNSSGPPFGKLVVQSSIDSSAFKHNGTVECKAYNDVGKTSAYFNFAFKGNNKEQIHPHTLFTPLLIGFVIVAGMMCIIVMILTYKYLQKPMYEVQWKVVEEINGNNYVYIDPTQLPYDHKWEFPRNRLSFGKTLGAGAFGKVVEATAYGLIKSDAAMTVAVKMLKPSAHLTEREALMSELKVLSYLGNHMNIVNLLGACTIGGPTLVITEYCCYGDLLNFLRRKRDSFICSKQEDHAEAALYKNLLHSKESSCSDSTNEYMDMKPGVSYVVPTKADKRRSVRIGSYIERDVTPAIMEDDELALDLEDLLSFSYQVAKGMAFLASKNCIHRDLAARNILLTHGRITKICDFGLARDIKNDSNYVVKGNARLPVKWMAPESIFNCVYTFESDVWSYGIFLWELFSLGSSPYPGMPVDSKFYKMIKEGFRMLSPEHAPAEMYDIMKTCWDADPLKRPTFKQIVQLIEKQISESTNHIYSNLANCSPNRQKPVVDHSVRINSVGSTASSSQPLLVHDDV
T2 sequence (P07947 whole entry): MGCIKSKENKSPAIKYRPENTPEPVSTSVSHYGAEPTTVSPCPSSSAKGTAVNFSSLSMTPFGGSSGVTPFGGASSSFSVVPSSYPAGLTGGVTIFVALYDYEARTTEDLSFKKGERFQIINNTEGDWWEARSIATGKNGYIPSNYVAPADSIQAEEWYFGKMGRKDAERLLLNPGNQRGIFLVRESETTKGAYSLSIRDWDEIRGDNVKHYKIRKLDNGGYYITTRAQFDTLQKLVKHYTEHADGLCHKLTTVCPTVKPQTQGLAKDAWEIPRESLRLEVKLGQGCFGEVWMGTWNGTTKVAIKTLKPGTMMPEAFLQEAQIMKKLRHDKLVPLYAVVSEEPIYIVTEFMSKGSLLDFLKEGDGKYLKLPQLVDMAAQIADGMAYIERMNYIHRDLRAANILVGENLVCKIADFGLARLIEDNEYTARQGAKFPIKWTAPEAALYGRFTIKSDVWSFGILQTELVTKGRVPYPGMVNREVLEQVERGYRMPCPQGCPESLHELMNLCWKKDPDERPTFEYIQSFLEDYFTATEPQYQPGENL

Structure (SMILES): COc1ccc(/C=C2\N=C(C)N(c3ccc(CC(=O)NCc4ccccc4)cc3)C2=O)cc1 [Compound 4c, (Z)-N-Benzyl-2-(4-(4-(4-methoxybenzylidene)-2-methyl-5-oxo-4,5-dihydro-1H-imidazol-1-yl)phenyl)acetamide]
- Mean Final score (Kinase score) [1]: 2.5
- Mean Kinase Statistic [1]: -1.184
- Mean Significance Score [1]: 2.048
- Mean Specificity Score [1]: 0.4367
- Mean Final score (Kinase score) [2]: 1.8671
- Mean Kinase Statistic [2]: -0.9897
- Mean Significance Score [2]: 1.824
- Mean Specificity Score [2]: 0.04992
- Mean Significance Score [3]: 2.048
- Mean Specificity Score [3]: 1.177
- Mean Final score (Kinase score) ([3]; listed as KIM-161): 3.29 and 3.287
- Mean Final score (Kinase score) [4]: 2.196
- Mean Kinase Statistic [4]: -1.111
- Mean Significance Score [4]: 2.048
- Mean Specificity Score [4]: 0.1452
- Mean Final score (Kinase score) [5]: 2.581
- Mean Kinase Statistic [5]: -1.291
- Mean Significance Score [5]: 2.048
- Mean Specificity Score [5]: 0.5837
